In ChEMBL document CHEMBL3758171 (Bioorg Med Chem, 2016):

Columns and labels:
Carbonic anhydrase 2 = Carbonic anhydrase 2 (Homo sapiens, UniProt P00918); assay: Inhibition of human recombinant carbonic anhydrase 2 preincubated for 15 mins by stopped flow CO2 hydration assay
Carbonic anhydrase 9 = Carbonic anhydrase 9 (Homo sapiens, UniProt Q16790)
Carbonic anhydrase 12 = Carbonic anhydrase 12 (Homo sapiens, UniProt O43570); assay: Inhibition of human recombinant carbonic anhydrase 12 preincubated for 15 mins by stopped flow CO2 hydration assay
Carbonic anhydrase 1 = Carbonic anhydrase 1 (Homo sapiens, UniProt P00915); assay: Inhibition of human recombinant carbonic anhydrase 1 preincubated for 15 mins by stopped flow CO2 hydration assay
Chain of Carbonic anhydrase 1 (P00915 whole entry): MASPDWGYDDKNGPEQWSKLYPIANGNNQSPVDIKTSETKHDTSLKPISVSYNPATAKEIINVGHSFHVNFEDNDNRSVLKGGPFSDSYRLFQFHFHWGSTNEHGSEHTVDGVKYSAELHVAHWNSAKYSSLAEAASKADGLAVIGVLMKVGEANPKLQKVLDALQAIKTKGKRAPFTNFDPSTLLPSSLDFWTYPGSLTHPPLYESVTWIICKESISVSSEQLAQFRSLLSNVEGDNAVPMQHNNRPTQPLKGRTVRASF

Chain of Carbonic anhydrase 12 (O43570 whole entry): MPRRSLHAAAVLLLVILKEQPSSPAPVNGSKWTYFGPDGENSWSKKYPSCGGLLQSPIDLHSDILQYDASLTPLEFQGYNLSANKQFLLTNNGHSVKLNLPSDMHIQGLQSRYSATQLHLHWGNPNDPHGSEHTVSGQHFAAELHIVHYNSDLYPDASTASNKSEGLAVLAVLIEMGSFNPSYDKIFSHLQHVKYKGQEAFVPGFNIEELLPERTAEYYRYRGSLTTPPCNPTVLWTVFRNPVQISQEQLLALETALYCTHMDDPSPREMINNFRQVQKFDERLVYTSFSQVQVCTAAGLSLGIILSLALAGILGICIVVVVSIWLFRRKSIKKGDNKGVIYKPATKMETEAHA

SMILES	Ki (Carbonic anhydrase 2) [nM]	Ki (Carbonic anhydrase 9) [nM]	Ki (Carbonic anhydrase 12) [nM]	Ki (Carbonic anhydrase 1) [nM]
O=C1c2ccccc2S(=O)(=O)N1Cc1ccc(Cl)cc1	> 10000	19	4.4	
O=C1c2ccccc2S(=O)(=O)N1Cc1ccc(F)cc1	> 10000	539	41	
CC1=CC(=O)N(CC(=O)c2ccc(C#N)cc2)S(=O)(=O)O1	140	27	4.1	
CC1=CC(OCC(=O)c2ccc(Br)cc2)=NS(=O)(=O)O1	> 10000	196	3.6	
Cc1cccc(CN2C(=O)c3ccccc3S2(=O)=O)c1	> 10000	184	26	
Cc1ccccc1CN1C(=O)c2ccccc2S1(=O)=O	> 10000	221	16	1370
CC1=CC(=O)N(Cc2ccc(Cl)cc2)S(=O)(=O)O1	> 10000	239	4.5	> 10000
Cc1ccc(CN2C(=O)c3ccccc3S2(=O)=O)cc1	> 10000	234	5.1	> 10000
O=C(CN1C(=O)c2ccccc2S1(=O)=O)c1ccc(F)cc1	> 10000	23	41	1110
CC1=CC(OCC(=O)c2ccc(Cl)cc2Cl)=NS(=O)(=O)O1	> 10000	265	5.5	> 10000
O=C(O)CN1C(=O)c2ccccc2S1(=O)=O	78000			110000
CC1=CC(=O)N(CC(=O)c2ccc([N+](=O)[O-])cc2)S(=O)(=O)O1	1750	2480	3.9	
O=C1c2ccccc2S(=O)(=O)N1Cc1ccc(C(F)(F)F)cc1	> 10000	51	4.7	
CC1=CC(=O)N(CC(=O)c2ccc(-c3ccccc3)cc2)S(=O)(=O)O1	> 10000	26	4	> 10000
O=C1NCc2ccccc21	> 10000	174	4.1	> 10000
O=C1c2ccccc2S(=O)(=O)N1Cc1ccc([N+](=O)[O-])cc1	> 10000	1170	29	
CC1=CC(=O)N(Cc2ccc([N+](=O)[O-])cc2)S(=O)(=O)O1	> 10000	210	4.3	> 10000
O=C1c2ccccc2S(=O)(=O)N1Sc1ccccc1[N+](=O)[O-]	> 10000	18	4	> 10000
CC1=CC(=O)N(Cc2ccc(F)cc2)S(=O)(=O)O1	> 10000	261	4.9	> 10000
COc1cccc(C(=O)CN2C(=O)c3ccccc3S2(=O)=O)c1	> 10000	1570	6	
O=C(CN1C(=O)c2ccccc2S1(=O)=O)c1ccc(Cl)cc1Cl	> 10000	191	3.9	1480
COc1cccc(C(=O)CN2C(=O)C=C(C)OS2(=O)=O)c1	> 10000		5.6	> 10000
O=C1c2ccccc2S(=O)(=O)N1Cc1ccccc1C(F)(F)F	> 10000	616	15	
O=C1c2ccccc2S(=O)(=O)N1Cc1cccc(C(F)(F)F)c1	> 10000	19	17	> 10000
O=C(O)CN1C(=O)c2ccccc2C1=O	> 10000	223	4.3	> 10000
O=C1c2ccccc2S(=O)(=O)N1Cc1ccc(Br)cc1	> 10000	22	4.3	> 10000
